Here are results for 98 molecules from ChEMBL document CHEMBL3507680, “University of Dundee, Gates Library screen for HepG2 cell viability”.

The series in a line: Human HepG2 cell viability assay in 384 well format. The class given is toxicity, cell-based. Also noted: dose 125 nL, time 70.5 hour; concentration not given beside the values. The following applies: HepG2 cells, read-out: Inhibition.
In the case of `Cc1ccccc1C(N)c1ccncc1` (stereo not drawn), the cytotoxicity at 70.5 h is -3.67%.

In the case of `O=c1[nH]nc2nc(N3CCOCC3)ccn12`, the cytotoxicity at 70.5 h is -1%.

`Cc1ccc(Sc2ccc(N3CCCC(C(=O)O)C3)nn2)cc1` (stereo not drawn): the cytotoxicity at 70.5 h was found to be 0.439%.

For the molecule `O=c1[nH]nc2nc(N3CCSCC3)ccn12`, the cytotoxicity at 70.5 h stood at 0.517%.

As for `Oc1nnc(-c2ccccc2)c2sc(N3CCCCC3)nc12`, the cytotoxicity at 70.5 h amounted to 0.482%.

Consider `CCOC(=O)c1cn(CC(O)c2ccccc2OC)nn1` (stereo not drawn), for which the cytotoxicity at 70.5 h turned out to be 7.58%.

`COc1cc(Cl)c(C)cc1-n1nnc(C(=O)O)c1-c1ccncc1`: the cytotoxicity at 70.5 h worked out at 28.1%.

For the molecule `CC(C)=CCC/C(C)=C\CNCc1ccco1`, the cytotoxicity at 70.5 h was determined as 2.6%.

Turning to `O=C(O)c1ccc2[nH]cc(CN3CCOCC3)c2c1`, the cytotoxicity at 70.5 h was found to be 2.68%.

For the molecule `CC(C)n1[nH]c(=O)c2c1NC(=O)CC2C1CCCCC1` (stereo not drawn), the cytotoxicity at 70.5 h came to 4.13%.

For `O=C1COc2ccc(S(=O)(=O)NC3CC3)c3c2N1CCC3`, the cytotoxicity at 70.5 h turned out to be 7.26%.

Turning to `COCc1nc2nc(O)c3c(n2n1)NC(=O)CC3c1ccc(SC)cc1` (stereo not drawn), the cytotoxicity at 70.5 h was determined as 1.29%.

`CCc1nc(C#N)c(N2CCC(c3nc(-c4ccccc4)no3)CC2)o1`: the cytotoxicity at 70.5 h was 0.267%.

As to `Cc1noc(C2CCN(c3oc(C)nc3C#N)CC2)n1`, the cytotoxicity at 70.5 h is 2.04%.

On to `CC(C)CN1C(=O)CC(N2CCN(c3ccc(F)cc3)CC2)C1=O` (stereo not drawn), for which the cytotoxicity at 70.5 h stood at 13.6%.

For the molecule `COCCCN1C(=O)CC(N2CCN(c3ccc(F)cc3)CC2)C1=O` (stereo not drawn), the cytotoxicity at 70.5 h is -1.4%.

On to `COCCNC(=O)c1sccc1N(C)S(=O)(=O)c1ccc(Cl)cc1`, for which the cytotoxicity at 70.5 h was -22.2%.

`O=c1[nH]c2nc(N3CCOCC3)ncc2c(=O)n1-c1cccc(F)c1`: the cytotoxicity at 70.5 h is -2.92%.

As to `O=c1[nH]c2nc(N3CCSCC3)ncc2c(=O)n1-c1ccc(F)cc1`, the cytotoxicity at 70.5 h is -16.9%.

For the molecule `CCN(c1ccc(C(=O)NCCN2CCOCC2)cc1)S(=O)(=O)CC`, the cytotoxicity at 70.5 h was -25.1%.

Consider `O=C(c1ccccc1-n1cnnn1)N1CCC2(CC1)OCCO2`, for which the cytotoxicity at 70.5 h is -1.41%.

`CCCn1[nH]c(CNc2ccccc2)nc1=O`: the cytotoxicity at 70.5 h is -2.36%.

As for `O=C(Nc1ccc(Cl)cn1)c1nn(C2CCS(=O)(=O)C2)c2c1CCCC2` (stereo not drawn), the cytotoxicity at 70.5 h was -23%.

`COc1ccc(OC)c(C2SCC(=O)Nc3n[nH]cc32)c1` (stereo not drawn): the cytotoxicity at 70.5 h was -9.28%.

For the molecule `O=C(Nc1ccc(Cl)cc1)c1nn(C2CCS(=O)(=O)C2)c2c1CCCC2` (stereo not drawn), the cytotoxicity at 70.5 h was -19.1%.

Take `Cc1cc(O)c(OCC(=O)/N=c2\[nH]c(C)cs2)cn1`: the cytotoxicity at 70.5 h is -2.18%.

With `CC(C)(C)NC(=O)c1nn(C2CCS(=O)(=O)C2)c2c1CCCC2` (stereo not drawn), the cytotoxicity at 70.5 h is -18.7%.

In the case of `O=C(c1cc(-n2cnnn2)ccc1Cl)N1CCCCCC1`, the cytotoxicity at 70.5 h is -2.04%.

Take `CC(C)NC(=O)c1ccc2c(c1)nc1n2CCN(Cc2ccco2)C1`: the cytotoxicity at 70.5 h was -10.4%.

Consider `CCOC(=O)c1s/c(=N\C(=O)COc2cnc(C)cc2O)[nH]c1C`, for which the cytotoxicity at 70.5 h is -19%.

In the case of `Cc1ccc(N2N=C(C(=O)NCC3CC3)S(=O)(=O)c3cccnc32)cc1`, the cytotoxicity at 70.5 h is -8.14%.

`CCc1c(C(=O)O)nnn1-c1ccc(C)cc1C`: the cytotoxicity at 70.5 h is -17.4%.

For `O=C1c2cnc(N3CCOCC3)nc2CN1c1ccc2c(c1)OCO2`, the cytotoxicity at 70.5 h is -5.67%.

Turning to `CCn1nccc1CNC(=O)C1CCCC1`, the cytotoxicity at 70.5 h was -6.56%.

As to `Cc1ncsc1C(=O)N1CCc2nnc(C3CCCCN3C)n2CC1` (stereo not drawn), the cytotoxicity at 70.5 h was -2.05%.

Turning to `CN(C)c1cc(CC(NC(=O)C2CC2)c2ccccc2)nc(C2CC2)n1` (stereo not drawn), the cytotoxicity at 70.5 h is 16.9%.

Regarding `CN(C)CC1(O)CCN(C(=O)Cc2ccc3c(c2)CCC3)C1` (stereo not drawn), the cytotoxicity at 70.5 h was 0.63%.

Consider `c1cnc(CC2COCCN(C3CCCCC3)C2)cn1` (stereo not drawn), for which the cytotoxicity at 70.5 h came out at 1.48%.

`CN(C)C(=O)c1cn[nH]c1C1CCCN1Cc1c[nH]cn1` (stereo not drawn): the cytotoxicity at 70.5 h was 0.232%.

As for `Cc1cn[nH]c1C1COCCN1C(=O)c1cc(F)ccc1F` (stereo not drawn), the cytotoxicity at 70.5 h was found to be 5.9%.

With `Cc1nc2c(c(=O)[nH]1)CCN(Cc1ccc3c(c1)CCCN3C)C2`, the cytotoxicity at 70.5 h was determined as 0.602%.

Turning to `Cc1nc(=O)c2ccccc2n1C1=CCN(CC(=O)N2CCCC2)CC1`, the cytotoxicity at 70.5 h was -1.43%.

On to `CNC(=O)CCc1cccc(C2CCCN(c3cc(C)ncn3)C2)n1` (stereo not drawn), for which the cytotoxicity at 70.5 h is -2.33%.

`CN(C)C(=O)c1cn[nH]c1C1CCCN1Cc1cncn1C` (stereo not drawn): the cytotoxicity at 70.5 h is -0.0963%.

Regarding `CC(C)C(=O)N1CCCC(Cc2cccnc2)C1` (stereo not drawn), the cytotoxicity at 70.5 h was -0.448%.

Turning to `CCS(=O)(=O)N1CCC(c2nn(CCN(C)C)c3ncccc23)C1` (stereo not drawn), the cytotoxicity at 70.5 h is -1.3%.

For `Cc1nc(CN(C)C(=O)CN(C)C)nc2c1CCC(=O)N2CCC(C)C`, the cytotoxicity at 70.5 h was -0.759%.

`Cc1nc(NC2CCN(S(=O)(=O)c3ccccc3)CC2)[nH]c(=O)c1C`: the cytotoxicity at 70.5 h is -9.46%.

Regarding `Cc1cc(C)n(CCNCc2cc(-c3ccccc3)c[nH]c2=O)n1`, the cytotoxicity at 70.5 h was -9.26%.

`O[C@@H]1C[C@H]2CN(CC3CCCCC3)[C@H](Cc3ccccc3)CN2C1`: the cytotoxicity at 70.5 h amounted to 24.4%.

Regarding `Cc1nn(C)cc1CN1CCc2nc3sccc3c(=O)n2CC1`, the cytotoxicity at 70.5 h is -9.47%.

In the case of `CCn1cncc1CN1CCc2nc3sccc3c(=O)n2CC1`, the cytotoxicity at 70.5 h is -5.29%.

As for `Cc1ccc(-c2nc(C3CCN(C(=O)c4ccn(C)n4)CC3)no2)cn1`, the cytotoxicity at 70.5 h was -10.5%.

With `CCC(=O)N1CCC(c2nc(N3CCCCC3)ncc2S(C)(=O)=O)CC1`, the cytotoxicity at 70.5 h was -2.83%.

For the molecule `CCN(CC)C(=O)CN1CCC2(C=Cc3cc(Cl)c(C)cc3O2)CC1`, the cytotoxicity at 70.5 h stood at 7.43%.

`CS(=O)(=O)c1cnc(N2CCCC2)nc1C1CCN(C(=O)C2CC2)CC1`: the cytotoxicity at 70.5 h was 0.997%.

Turning to `COc1ccc(C(C)N(C)Cc2c(C(C)C)[nH]c3ncccc23)cc1` (stereo not drawn), the cytotoxicity at 70.5 h came to 20.8%.

With `O=C(NCCCO)C1(CC2CC(c3ccc(F)cc3)=NO2)CCOCC1` (stereo not drawn), the cytotoxicity at 70.5 h was -5.38%.

Consider `CCc1ncc(CN2C[C@@H]3C[C@@H](O)CN3C[C@@H]2Cc2ccccc2)cn1`, for which the cytotoxicity at 70.5 h is -5.41%.

In the case of `Cc1cc(Nc2cnccn2)cc(C2CCCNC2)n1` (stereo not drawn), the cytotoxicity at 70.5 h is -2.88%.

As to `Cc1cc(N(C)C)nc(C2COCCN2Cc2cscn2)n1` (stereo not drawn), the cytotoxicity at 70.5 h turned out to be 18%.

`Cc1cc(NC2CC3(CCN(Cc4ncccc4F)C3)C2)ncn1` (stereo not drawn): the cytotoxicity at 70.5 h was -3.79%.

With `Cc1ocnc1C(=O)N(C)[C@@H]1CC[C@@H](Oc2ccccc2)[C@@H]1O`, the cytotoxicity at 70.5 h is -5.13%.

`Cc1nn(C)cc1S(=O)(=O)N[C@@H]1CCC[C@@H](N2CCCC2)[C@@H]1O`: the cytotoxicity at 70.5 h was -9.32%.

Take `Cc1nn(C)cc1S(=O)(=O)N[C@@H]1CC[C@@H](n2ccnc2C)[C@@H]1O`: the cytotoxicity at 70.5 h came to 17.7%.

Regarding `Cc1nccn1[C@@H]1CC[C@@H](NC(=O)CCOc2ccccc2)[C@H]1O`, the cytotoxicity at 70.5 h amounted to 16.9%.

Regarding `CN(C)CCn1nc(C2CCN(Cc3ccccc3)C2)c2cccnc21` (stereo not drawn), the cytotoxicity at 70.5 h was found to be 31.8%.

Turning to `COCC(=O)N1CCCCC1c1nc(CN(C)C(C)=O)cc(N(C)C)n1` (stereo not drawn), the cytotoxicity at 70.5 h was found to be 50.7%.

Regarding `Nc1ncc(-c2ccc(C(F)(F)F)cc2)c(C2CCCNC2)n1` (stereo not drawn), the cytotoxicity at 70.5 h is 0.61%.

On to `CN1CCN([C@@H]2CN(C(=O)c3cc4ccc(F)cc4[nH]3)C[C@H]2O)CC1`, for which the cytotoxicity at 70.5 h is -3.6%.

Consider `CCC(=O)N1CCCCC1c1nc(CN(C)C(C)=O)cc(N(C)C)n1` (stereo not drawn), for which the cytotoxicity at 70.5 h was -1.37%.

For the molecule `CN(C)[C@@H]1CN(C(=O)c2cc3cccc(F)c3[nH]2)C[C@H]1O`, the cytotoxicity at 70.5 h was -2.67%.

Consider `Cc1ncc(CNC(=O)Cc2cccs2)c(C2CCCN2C)n1` (stereo not drawn), for which the cytotoxicity at 70.5 h was -4.94%.

For the molecule `Cc1ncc(CNC(=O)CCc2c(C)noc2C)c(C2CCCN2C)n1` (stereo not drawn), the cytotoxicity at 70.5 h is -3.48%.

On to `O=C(Cc1cccs1)N1CCCCC1c1ccn2ccnc2n1` (stereo not drawn), for which the cytotoxicity at 70.5 h was -5.26%.

Consider `Cc1ncc(CNC(=O)Cc2ccsc2)c(C2CCCN2C)n1` (stereo not drawn), for which the cytotoxicity at 70.5 h was -5.12%.

For `Cc1ccccc1CN1CCOC(c2nccc(CN(C)C)n2)C1` (stereo not drawn), the cytotoxicity at 70.5 h is -8.08%.

As to `CN(C)Cc1ccnc(C2CN(CCCc3ccccc3)CCO2)n1` (stereo not drawn), the cytotoxicity at 70.5 h was -6.75%.

As to `CN(C)CC(=O)N1CCCC1c1cncc(Oc2ccc(F)cc2)n1` (stereo not drawn), the cytotoxicity at 70.5 h was determined as 11.5%.

Take `Cc1noc(C)c1-c1cccc(CC2CCN(C(=O)CN)C2)n1` (stereo not drawn): the cytotoxicity at 70.5 h was -4.83%.

On to `Cc1cccc(Nc2nccnc2C2CCCN(CC(=O)N(C)C)C2)n1` (stereo not drawn), for which the cytotoxicity at 70.5 h was -7.55%.

In the case of `Nc1nc(C2CCN(C(=O)c3cnco3)CC2)cs1`, the cytotoxicity at 70.5 h was -5.18%.

Turning to `CC(=O)N1CCC(c2nccnc2Nc2ncc(C)s2)CC1`, the cytotoxicity at 70.5 h was -10.6%.

As to `NC(=O)C1(c2cnccn2)CCCN1Cc1ccc(Cl)c(F)c1` (stereo not drawn), the cytotoxicity at 70.5 h is -5.01%.

As for `COCCC(=O)N1CCC(c2cncc(Oc3cccnc3)n2)CC1`, the cytotoxicity at 70.5 h is -0.961%.

For `CC(C)(N)C(=O)N1CCCC1c1cncc(Oc2ccccc2)n1` (stereo not drawn), the cytotoxicity at 70.5 h was 2.03%.

For `Cn1ccnc1CN1CCOC(C)(C(=O)N2CCOCC2)C1` (stereo not drawn), the cytotoxicity at 70.5 h was found to be 1.29%.

Turning to `CC(C)(CO)NCc1ccc(OCc2ccc3c(c2)OCCO3)cc1`, the cytotoxicity at 70.5 h is -2.91%.

With `c1cc(NCc2ccncc2)nc(C2CCCNC2)c1` (stereo not drawn), the cytotoxicity at 70.5 h is -1.2%.

As for `CC(C)N(C(=O)Cn1c(-c2ccco2)cc2cccnc21)C(C)C`, the cytotoxicity at 70.5 h is -15.1%.

On to `O=C(Cn1c(-c2ccco2)cc2cccnc21)N1CCCC1`, for which the cytotoxicity at 70.5 h is -8.97%.

Consider `Cc1csc(C(Cc2ccsc2)NC(=O)CN(C)Cc2ccccn2)n1` (stereo not drawn), for which the cytotoxicity at 70.5 h was -5%.

Take `CN(CC(=O)NC(Cc1ccsc1)c1cccnc1)Cc1cccnc1` (stereo not drawn): the cytotoxicity at 70.5 h turned out to be 19.4%.

Take `CN(C)c1ncc(-c2ccc(C(N)=O)cc2)c(C2CCNC2)n1` (stereo not drawn): the cytotoxicity at 70.5 h is -2.25%.

In the case of `Cc1cc(CCC(=O)N(C)C)nc(C2CCCCN2)n1` (stereo not drawn), the cytotoxicity at 70.5 h was -5.77%.

As to `COc1cccc(CN(Cc2ncc[nH]2)Cc2ccco2)c1`, the cytotoxicity at 70.5 h is -2.53%.

Take `COc1ccc(OC)c(CN(Cc2ccco2)Cc2[nH]cnc2C)c1`: the cytotoxicity at 70.5 h is -10.2%.

On to `Cc1c[nH]nc1C1CCCN1Cc1nccn1C` (stereo not drawn), for which the cytotoxicity at 70.5 h is -4.65%.
